For seven molecules, IC50 results are on record in patent publication US20250215030A1, “STAT MODULATORS AND USES THEREOF” (Recludix Pharma, Inc., priority 2022, published 2025).

Test [1] deals with T1, Recombinant STAT6 protein (STAT6(W123-T658)) (Homo sapiens, UniProt P42226).
T1 construct: STAT6(W123-T658)
T1 sequence (P42226 123-658): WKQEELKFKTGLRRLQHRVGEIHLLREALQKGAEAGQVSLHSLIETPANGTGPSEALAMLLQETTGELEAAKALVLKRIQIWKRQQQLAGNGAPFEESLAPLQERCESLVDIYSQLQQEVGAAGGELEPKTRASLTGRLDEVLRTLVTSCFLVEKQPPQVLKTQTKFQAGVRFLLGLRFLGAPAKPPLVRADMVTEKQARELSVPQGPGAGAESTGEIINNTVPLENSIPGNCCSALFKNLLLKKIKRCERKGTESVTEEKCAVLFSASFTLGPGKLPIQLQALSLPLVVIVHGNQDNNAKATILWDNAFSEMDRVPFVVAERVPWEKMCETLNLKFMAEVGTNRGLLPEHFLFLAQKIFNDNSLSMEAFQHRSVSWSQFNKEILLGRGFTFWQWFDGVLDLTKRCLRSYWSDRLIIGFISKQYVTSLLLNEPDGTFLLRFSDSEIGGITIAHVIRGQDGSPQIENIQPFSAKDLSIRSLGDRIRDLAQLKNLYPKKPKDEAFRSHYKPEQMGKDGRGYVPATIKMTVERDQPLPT
Kind of test: STAT6 Fluorescence Polarization (FP) Assay. Conditions: STAT6(W123-T658) 250 nM, probe 5-FAM-ApYKPFQDLI-NH2 2 nM, 45-minute incubation. Type of test: binding. In outline:
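Competitive displacement of a fluorescent phosphotyrosine peptide (2 nM) from recombinant STAT6 W123-T658 (250 nM), 45 min at room temperature in 10 mM HEPES pH 7.4, 50 mM NaCl, 2 mM DTT. mP fitted against log compound for IC50, grouped A (≤300 nM) to D (>30 μM).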
On the technique in general: Fluorescence polarisation rises when a labelled molecule tumbles more slowly, as on binding a larger partner.

Test [2] addresses T2, Recombinant STAT3 protein (STAT3(G127-I722)) (Homo sapiens, UniProt P40763).
T2 construct: STAT3(G127-I722)
Briefly: STAT3 Fluorescence Polarization (FP) Assay. Conditions: STAT3(G127-I722) 25 nM, probe 5-FAM-GpYLPQTV-NH2 2 nM, 45-minute incubation. Type of test: binding. In outline: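 Serially diluted compounds (1% DMSO) were mixed with 2 nM fluorescent phosphotyrosine peptide and 25 nM STAT3 construct G127-I722, pH 7.4, incubated 45 min at room temperature. IC50 values from fitted polarization curves are reported as categories A (≤100 nM), B, C, D (>10 μM).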

T2 sequence (P40763 127-722, species assumed): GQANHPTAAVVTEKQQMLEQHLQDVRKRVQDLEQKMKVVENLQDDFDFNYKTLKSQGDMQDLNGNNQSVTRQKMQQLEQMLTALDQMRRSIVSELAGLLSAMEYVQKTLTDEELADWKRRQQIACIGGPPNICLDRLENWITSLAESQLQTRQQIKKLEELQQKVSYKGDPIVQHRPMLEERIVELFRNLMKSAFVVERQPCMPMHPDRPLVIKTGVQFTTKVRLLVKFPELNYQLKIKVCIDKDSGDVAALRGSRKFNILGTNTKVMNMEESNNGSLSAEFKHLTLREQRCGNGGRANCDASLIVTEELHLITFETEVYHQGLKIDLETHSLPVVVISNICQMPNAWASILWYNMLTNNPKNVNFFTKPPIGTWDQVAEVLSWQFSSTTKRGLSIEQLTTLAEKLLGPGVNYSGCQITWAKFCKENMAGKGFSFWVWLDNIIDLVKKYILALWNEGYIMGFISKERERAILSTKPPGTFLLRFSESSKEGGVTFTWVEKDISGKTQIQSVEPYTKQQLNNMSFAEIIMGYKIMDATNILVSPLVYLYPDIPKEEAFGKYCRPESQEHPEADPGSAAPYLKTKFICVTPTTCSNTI

Take `CC(=O)N1CC[C@@H]2[C@H]1CN2C(=O)[C@@H]1CC[C@@H]2C[C@H]3C[C@H]3C[C@H](NC(=O)c3cc4cc(C(F)P(=O)(O)O)ccc4s3)C(=O)N21` (stereo partly drawn) [Example 290, ((2-(((3S,6S,7aS,8aR,9aR)-3-((1R,5R)-2-acetyl-2,6-diazabicyclo[3.2.0]heptane-6-carbonyl)-5-oxodecahydro-1H-cyclopropa[d]pyrrolo[1,2-a]azocin-6-yl)carbamoyl)benzo[b]thiophen-5-yl)fluoromethyl)phosphonic acid]: the IC50 – broadly, the concentration that inhibits the measured activity by half – in test [1] was 3 to 30 µM; in test [2], 0.1 to 1 µM.

As for `O=C(N[C@H]1C[C@H]2C[C@H]2C[C@H]2CC[C@@H](C(=O)N3CC(c4cnccc4O)C3)N2C1=O)c1cc2cc(C(F)P(=O)(O)O)ccc2s1` (stereo partly drawn) [Example 293, (fluoro(2-(((3S,6S,7aR,8aS,9aR)-3-(3-(4-hydroxypyridin-3-yl)azetidine-1-carbonyl)-5-oxodecahydro-1H-cyclopropa[d]pyrrolo[1,2-a]azocin-6-yl)carbamoyl)benzo[b]thiophen-5-yl)methyl)phosphonic acid], the IC50 in test [1] is 0.3 to 3 µM; in test [2] it was less than 0.1 µM.

For `O=C(N[C@H]1C[C@H]2C[C@H]2C[C@H]2CC[C@@H](C(=O)N3CC(c4cnccc4O)C3)N2C1=O)c1cc2cc(CP(=O)(O)O)ccc2s1` [Example 294, ((2-(((3S,6S,7aR,8aS,9aR)-3-(3-(4-hydroxypyridin-3-yl)azetidine-1-carbonyl)-5-oxodecahydro-1H-cyclopropa[d]pyrrolo[1,2-a]azocin-6-yl)carbamoyl)benzo[b]thiophen-5-yl)methyl)phosphonic acid], the IC50 in test [1] was 3 to 30 µM; in test [2], less than 0.1 µM.

Regarding `O=C(N[C@H]1C[C@@H]2C[C@@H]2C[C@H]2CC[C@@H](C(=O)N3C[C@H]4[C@@H]3CCN4c3cccnc3)N2C1=O)c1cc2cc(C(F)P(=O)(O)O)ccc2s1` (stereo partly drawn) [Example 295, (fluoro(2-(((3S,6S,7aS,8aR,9aR)-5-oxo-3-((1S,5S)-2-(pyridin-3-yl)-2,6-diazabicyclo[3.2.0]heptane-6-carbonyl)decahydro-1H-cyclopropa[d]pyrrolo[1,2-a]azocin-6-yl)carbamoyl)benzo[b]thiophen-5-yl)methyl)phosphonic acid], the IC50 in test [1] is 0.3 to 3 µM; in test [2] it was less than 0.1 µM.

On to `O=C(N[C@H]1C[C@@H]2C[C@@H]2C[C@H]2CC[C@@H](C(=O)N3C[C@@H]4[C@H]3CCN4c3cccnc3)N2C1=O)c1cc2cc(C(F)P(=O)(O)O)ccc2s1` (stereo partly drawn) [Example 296, (fluoro(2-(((3S,6S,7aS,8aR,9aR)-5-oxo-3-((1R,5R)-2-(pyridin-3-yl)-2,6-diazabicyclo[3.2.0]heptane-6-carbonyl)decahydro-1H-cyclopropa[d]pyrrolo[1,2-a]azocin-6-yl)carbamoyl)benzo[b]thiophen-5-yl)methyl)phosphonic acid], for which the results for the IC50 in test [1] and in test [2] were 0.3 to 3 µM and less than 0.1 µM, respectively.

As to `O=C(N[C@H]1C[C@@H]2C[C@@H]2C[C@H]2CC[C@@H](C(=O)N3CC(c4ccon4)C3)N2C1=O)c1cc2cc(C(F)(F)P(=O)(O)O)ccc2s1` [Example 299, (difluoro(2-(((3S,6S,7aS,8aR,9aR)-3-(3-(isoxazol-3-yl)azetidine-1-carbonyl)-5-oxodecahydro-1H-cyclopropa[d]pyrrolo[1,2-a]azocin-6-yl)carbamoyl)benzo[b]thiophen-5-yl)methyl)phosphonic acid], the values for the IC50 in test [1] and in test [2] were 0.3 to 3 µM and less than 0.1 µM, respectively.

With `O=C(N[C@H]1C[C@@H]2C[C@@H]2C[C@H]2CC[C@@H](C(=O)N3CC(c4ncco4)C3)N2C1=O)c1cc2cc(C(F)(F)P(=O)(O)O)ccc2s1` [Example 300, (difluoro(2-(((3S,6S,7aS,8aR,9aR)-3-(3-(oxazol-2-yl)azetidine-1-carbonyl)-5-oxodecahydro-1H-cyclopropa[d]pyrrolo[1,2-a]azocin-6-yl)carbamoyl)benzo[b]thiophen-5-yl)methyl)phosphonic acid], the values for the IC50 in test [1] and in test [2] were 0.3 to 3 µM and less than 0.1 µM, respectively.
